The values that follow come from US20200087248A1, “Fluoroallylamine Derivative And Use Thereof” (SICHUAN KELUN-BIOTECH BIOPHARMACEUTICAL CO., LTD., priority 2017, published 2020).

This assay has as its target T1, VAP-1 in abdominal fat of mice (Mus musculus, UniProt O70423).
T1 construct: abdominal fat was collected and homogenized; from tissue; host or cells: abdominal fat of BALBc mice (homogenate supernatant)
T1 sequence (O70423 1-765): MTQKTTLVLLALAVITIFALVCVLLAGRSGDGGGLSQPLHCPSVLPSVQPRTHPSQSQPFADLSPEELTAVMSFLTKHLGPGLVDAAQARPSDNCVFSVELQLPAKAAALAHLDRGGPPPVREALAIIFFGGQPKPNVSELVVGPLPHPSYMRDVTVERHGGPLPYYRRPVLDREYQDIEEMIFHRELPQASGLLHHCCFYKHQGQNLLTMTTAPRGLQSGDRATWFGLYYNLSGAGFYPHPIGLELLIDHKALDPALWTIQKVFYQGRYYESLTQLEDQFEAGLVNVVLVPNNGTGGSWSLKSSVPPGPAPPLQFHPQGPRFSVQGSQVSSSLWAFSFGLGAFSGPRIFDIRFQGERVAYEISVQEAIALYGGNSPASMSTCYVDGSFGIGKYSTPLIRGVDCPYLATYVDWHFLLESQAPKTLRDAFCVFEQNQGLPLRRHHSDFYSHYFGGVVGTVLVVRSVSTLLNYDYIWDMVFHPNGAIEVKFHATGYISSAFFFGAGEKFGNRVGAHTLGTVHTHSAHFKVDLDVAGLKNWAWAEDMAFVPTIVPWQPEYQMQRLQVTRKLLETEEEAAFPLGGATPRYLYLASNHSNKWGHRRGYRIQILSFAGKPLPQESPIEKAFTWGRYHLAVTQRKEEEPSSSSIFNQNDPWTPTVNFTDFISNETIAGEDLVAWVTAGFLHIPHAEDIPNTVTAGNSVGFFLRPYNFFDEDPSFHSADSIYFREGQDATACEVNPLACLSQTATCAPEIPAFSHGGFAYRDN
The assay can be described thus: Inhibition of VAP-1 enzymatic activity at different dose and time conditions (ex-vivo). It is filed as in vivo, BALBc mice. The following applies: for Inhibition rate against the enzymatic activity of VAP-1 in abdominal fat of mice: hydrochloride; for inhibition at 0.5 mg/kg / inhibition at 3 mg/kg: mouse, po, read-out: Inhibition rate against the enzymatic activity of VAP-1 in abdominal fat of mice. Here is the method: Inhibition Experiment Against the Enzymatic Activity at Different Does and Time Conditions (ex-vivo)
Tissue homogenate buffer solution (20 mM HEPES, pH 7.2, 1 mM EDTA, 250 mM sucrose, PMSF 0.2 mM)
Reaction buffer solution: 50 mM PBS, pH 7.4
Test kit: Amplex® Red Monoamine Oxidase Assay, Manufacturer: ThermoFisher
BALBc mice were orally administrated with different doses (0.5 mg/kg, 3 mg/kg) of the test compound, and the vehicle group was used as the control group. Abdominal fat was collected at 6 hrs, 10 hrs, 24 hrs respectively, and homogenized with a pre-cooled homogenate buffer solution, and thereafter, the supernatant was collected and stored for use.
A test sample was diluted with the reaction buffer solution, and respectively added with the inhibition solution A 1 μM Clorgyline+1 μM pargylin, to inhibit the activities of MAO-A and MAO-B, and the inhibition solution B: 1 μM Clorgyline+1 μM Pargylin+1 μM Mofegiline as the Wank control, and after being incubated at room temperature, 500 μM benzylamine hydrochloride, 1 U/mL HRP and 200 μM Amplex Red reagent were added to start the reaction. By referring to the method in “Experiment of inhibiting the enzymatic activity of VAP-1”, the relative activities of each dose groups were calculated, wherein ratio of the fluorescent signal to reaction time in the linear range is the reaction rate, and the vehicle group is the positive control, thereby to study the inhibition of the compound against the enzymatic activity of VAP-1 in abdominal fat of mice.

Where a name gives a salt, the structure may show the parent alone. Read-outs that look alike come from different tables or passages of the source.

One may read the inhibition as the relative decrease from the control value, in per cent.

In the case of `CC1(C)Cc2cc(OC/C(=C/F)CN)ccc2C(=O)N1` [HC38-E, (E)-6-((2-(aminomethyl)-3-fluoroallyl)oxy)-3,3-dimethyl-3,4-dihydroisoquinolin-1(2H)-one hydrochloride], the “Inhibition rate against the enzymatic activity of VAP-1 in abdominal fat of mice” value (0.5 mg/kg oral, 6 hours) turned out to be 95.8 ± 3.6% and the “Inhibition rate against the enzymatic activity of VAP-1 in abdominal fat of mice” value (3.0 mg/kg oral, 10 hours) is given as 95.3 ± 1.9%. Further, the inhibition at 0.5 mg/kg (0.5 mg/kg oral, 6 hours) was about 95%; the inhibition at 0.5 mg/kg (0.5 mg/kg oral, 10 hours) turned out to be 90.3 ± 3.2%; the inhibition at 0.5 mg/kg (0.5 mg/kg oral, 24 hours) was 68.1 ± 7.4%. Besides, the inhibition at 3 mg/kg reads like this: (3.0 mg/kg oral, 6 hours) 96.4 ± 5.6%; (3.0 mg/kg oral, 10 hours) about 95%; (3.0 mg/kg oral, 24 hours) 78 ± 9.3%.
